According to ChEMBL document CHEMBL4257449, “New N-(2-phenyl-4-oxo-1,3-thiazolidin-3-yl)-1,2-benzothiazole-3-carboxamides and acetamides as antimicrobial agents” (2017):
≈ marks a conversion by molar mass, not a printed value.

Assays:
Penicillium ochrochloron [1] = assay: Antifungal activity against Penicillium ochrochloron ATCC 9112 after 72 hrs by serial dilution method; format: functional; details: ATCC 9112, 72 h
Bacillus cereus [2] = assay: Antibacterial activity against Bacillus cereus after 24 hrs by microdilution method; format: functional
Bacillus cereus [3] = assay: Bactericidal activity against Bacillus cereus incubated for 24 hrs followed by serial sub-cultivation and measured after 24 hrs by microdilution method; format: functional
Micrococcus flavus [4] = assay: Antibacterial activity against Micrococcus flavus ATCC 10240 after 24 hrs by microdilution method; format: functional; details: ATCC 10240, 24 h
Micrococcus flavus [5] = assay: Bactericidal activity against Micrococcus flavus ATCC 10240 incubated for 24 hrs followed by serial sub-cultivation and measured after 24 hrs by microdilution method; format: functional
Staphylococcus aureus [6] = assay: Antibacterial activity against Staphylococcus aureus ATCC 6538 after 24 hrs by microdilution method; format: functional; details: ATCC 6538, 24 h
Staphylococcus aureus [7] = assay: Bactericidal activity against Staphylococcus aureus ATCC 6538 incubated for 24 hrs followed by serial sub-cultivation and measured after 24 hrs by microdilution method; format: functional
Listeria monocytogenes [8] = assay: Antibacterial activity against Listeria monocytogenes NCTC 7973 after 24 hrs by microdilution method; format: functional; details: NCTC 7973, 24 h
Listeria monocytogenes [9] = assay: Bactericidal activity against Listeria monocytogenes NCTC 7973 incubated for 24 hrs followed by serial sub-cultivation and measured after 24 hrs by microdilution method; format: functional
Escherichia coli [10] = assay: Antibacterial activity against Escherichia coli ATCC 35210 after 24 hrs by microdilution method; format: functional; details: ATCC 35210, 24 h
Escherichia coli [11] = assay: Bactericidal activity against Escherichia coli ATCC 35210 incubated for 24 hrs followed by serial sub-cultivation and measured after 24 hrs by microdilution method; format: functional
Enterobacter cloacae [12] = assay: Antibacterial activity against Enterobacter cloacae after 24 hrs by microdilution method; format: functional
Enterobacter cloacae [13] = assay: Bactericidal activity against Enterobacter cloacae incubated for 24 hrs followed by serial sub-cultivation and measured after 24 hrs by microdilution method; format: functional
Pseudomonas aeruginosa [14] = assay: Antibacterial activity against Pseudomonas aeruginosa ATCC 27853 after 24 hrs by microdilution method; format: functional; details: ATCC 27853, 24 h
Pseudomonas aeruginosa [15] = assay: Bactericidal activity against Pseudomonas aeruginosa ATCC 27853 incubated for 24 hrs followed by serial sub-cultivation and measured after 24 hrs by microdilution method; format: functional
Salmonella typhimurium [16] = assay: Antibacterial activity against Salmonella typhimurium ATCC 13311 after 24 hrs by microdilution method; format: functional, Salmonella enterica subsp. enterica serovar Typhimurium; details: Salmonella enterica, ATCC 13311, 24 h
Salmonella typhimurium [17] = assay: Bactericidal activity against Salmonella typhimurium ATCC 13311 incubated for 24 hrs followed by serial sub-cultivation and measured after 24 hrs by microdilution method; format: functional, Salmonella enterica subsp. enterica serovar Typhimurium
Aspergillus versicolor [18] = assay: Antifungal activity against Aspergillus versicolor ATCC 11730 after 72 hrs by serial dilution method; format: functional; details: ATCC 11730, 72 h
Aspergillus fumigatus [19] = assay: Antifungal activity against Aspergillus fumigatus after 72 hrs by serial dilution method; format: functional
Aspergillus fumigatus [20] = assay: Fungicidal activity against Aspergillus fumigatus incubated for 72 hrs followed by serial sub-cultivation for 72 hrs and measured after 72 hrs by serial dilution method; format: functional
Aspergillus versicolor [21] = assay: Fungicidal activity against Aspergillus versicolor ATCC 11730 incubated for 72 hrs followed by serial sub-cultivation for 72 hrs and measured after 72 hrs by serial dilution method; format: functional
Aspergillus ochraceus [22] = assay: Antifungal activity against Aspergillus ochraceus ATCC 12066 after 72 hrs by serial dilution method; format: functional; details: ATCC 12066, 72 h
Aspergillus ochraceus [23] = assay: Fungicidal activity against Aspergillus ochraceus ATCC 12066 incubated for 72 hrs followed by serial sub-cultivation for 72 hrs and measured after 72 hrs by serial dilution method; format: functional
Aspergillus niger [24] = assay: Antifungal activity against Aspergillus niger ATCC 6275 after 72 hrs by serial dilution method; format: functional; details: ATCC 6275, 72 h
Aspergillus niger [25] = assay: Fungicidal activity against Aspergillus niger ATCC 6275 incubated for 72 hrs followed by serial sub-cultivation for 72 hrs and measured after 72 hrs by serial dilution method; format: functional
Trichoderma viride [26] = assay: Antifungal activity against Trichoderma viride IAM 5061 after 72 hrs by serial dilution method; format: functional; details: IAM 5061, 72 h
Trichoderma viride [27] = assay: Fungicidal activity against Trichoderma viride IAM 5061 incubated for 72 hrs followed by serial sub-cultivation for 72 hrs and measured after 72 hrs by serial dilution method; format: functional
Talaromyces funiculosus [28] = assay: Antifungal activity against Penicillium funiculosum ATCC 36839 after 72 hrs by serial dilution method; format: functional; details: ATCC 36839, 72 h
Talaromyces funiculosus [29] = assay: Fungicidal activity against Penicillium funiculosum ATCC 36839 incubated for 72 hrs followed by serial sub-cultivation for 72 hrs and measured after 72 hrs by serial dilution method; format: functional
Penicillium ochrochloron [30] = assay: Fungicidal activity against Penicillium ochrochloron ATCC 9112 incubated for 72 hrs followed by serial sub-cultivation for 72 hrs and measured after 72 hrs by serial dilution method; format: functional
Candida albicans [31] = assay: Antifungal activity against Candida albicans after 72 hrs by serial dilution method; format: functional
Candida albicans [32] = assay: Fungicidal activity against Candida albicans incubated for 72 hrs followed by serial sub-cultivation for 72 hrs and measured after 72 hrs by serial dilution method; format: functional

MIC (Penicillium ochrochloron [1]) [µM] | MIC (Bacillus cereus [2]) [µM] | MIC (Micrococcus flavus [4]) [µM] | MIC (Staphylococcus aureus [6]) [µM] | MIC (Listeria monocytogenes [8]) [µM] | MIC (Escherichia coli [10]) [µM] | MIC (Enterobacter cloacae [12]) [µM] | MIC (Pseudomonas aeruginosa [14]) [µM] | MIC (Salmonella typhimurium [16]) [µM] | MIC (Aspergillus versicolor [18]) [µM] | MIC (Aspergillus fumigatus [19]) [µM] | Structure (SMILES) | MBC99.5 (Bacillus cereus [3]) [×10⁻² umol/ml] | MBC99.5 (Micrococcus flavus [5]) [×10⁻² umol/ml] | MBC99.5 (Staphylococcus aureus [7]) [×10⁻² umol/ml] | MBC99.5 (Listeria monocytogenes [9]) [×10⁻² umol/ml] | MBC99.5 (Escherichia coli [11]) [×10⁻² umol/ml] | MBC99.5 (Enterobacter cloacae [13]) [×10⁻² umol/ml] | MBC99.5 (Pseudomonas aeruginosa [15]) [×10⁻² umol/ml] | MBC99.5 (Salmonella typhimurium [17]) [×10⁻² umol/ml] | MFC99.5 (Aspergillus fumigatus [20]) [×10⁻² umol/ml] | also measured
384 (≈ 150 µg/mL) | 154 (≈ 60 µg/mL) | 384 (≈ 150 µg/mL) | 102 (≈ 39.8 µg/mL) | 589 (≈ 230 µg/mL) | 282 (≈ 110 µg/mL) | 205 (≈ 79.9 µg/mL) | 282 (≈ 110 µg/mL) | 205 (≈ 79.9 µg/mL) | 25.6 (≈ 9.98 µg/mL) | 102 (≈ 40 µg/mL) | O=C(NN1C(=O)CSC1c1ccccc1Cl)c1nsc2ccccc12 (stereo unspecified) | 38.4 | 76.8 | 38.4 | 76.8 | 38.4 | 38.4 | 38.4 | 38.4 | 20.5 | MFC99.5 (Aspergillus versicolor [21]): 5.1 ×10⁻² umol/ml; MIC (Aspergillus ochraceus [22]): 102 µM (≈ 39.8 µg/mL); MFC99.5 (Aspergillus ochraceus [23]): 20.5 ×10⁻² umol/ml; MIC (Aspergillus niger [24]): 102 µM (≈ 39.8 µg/mL); MFC99.5 (Aspergillus niger [25]): 20.5 ×10⁻² umol/ml; MIC (Trichoderma viride [26]): 102 µM (≈ 39.8 µg/mL); MFC99.5 (Trichoderma viride [27]): 20.5 ×10⁻² umol/ml; MIC (Talaromyces funiculosus [28]): 205 µM (≈ 79.9 µg/mL); MFC99.5 (Talaromyces funiculosus [29]): 38.4 ×10⁻² umol/ml; MFC99.5 (Penicillium ochrochloron [30]): 76.8 ×10⁻² umol/ml; MIC (Candida albicans [31]): 384 µM (≈ 150 µg/mL); MFC99.5 (Candida albicans [32]): 76.8 ×10⁻² umol/ml
208 (≈ 81.1 µg/mL) | 102 (≈ 39.8 µg/mL) | 205 (≈ 79.9 µg/mL) | 102 (≈ 39.8 µg/mL) | 20.5 (≈ 7.99 µg/mL) | 102 (≈ 39.8 µg/mL) | 205 (≈ 79.9 µg/mL) | 205 (≈ 79.9 µg/mL) | 205 (≈ 79.9 µg/mL) | 51 (≈ 19.9 µg/mL) | 384 (≈ 150 µg/mL) | O=C(NN1C(=O)CSC1c1cccc(Cl)c1)c1nsc2ccccc12 (stereo unspecified) | 38.4 | 38.4 | 20.5 | 3.84 | 20.5 | 38.4 | 38.4 | 38.4 | 76.8 | MFC99.5 (Aspergillus versicolor [21]): 10.2 ×10⁻² umol/ml; MIC (Aspergillus ochraceus [22]): 102 µM (≈ 39.8 µg/mL); MFC99.5 (Aspergillus ochraceus [23]): 20.5 ×10⁻² umol/ml; MIC (Aspergillus niger [24]): 77 µM (≈ 30 µg/mL); MFC99.5 (Aspergillus niger [25]): 10.2 ×10⁻² umol/ml; MIC (Trichoderma viride [26]): 51 µM (≈ 19.9 µg/mL); MFC99.5 (Trichoderma viride [27]): 10.2 ×10⁻² umol/ml; MIC (Talaromyces funiculosus [28]): 102 µM (≈ 39.8 µg/mL); MFC99.5 (Talaromyces funiculosus [29]): 20.5 ×10⁻² umol/ml; MFC99.5 (Penicillium ochrochloron [30]): 38.4 ×10⁻² umol/ml; MIC (Candida albicans [31]): 102 µM (≈ 39.8 µg/mL); MFC99.5 (Candida albicans [32]): 20.5 ×10⁻² umol/ml
107 (≈ 40 µg/mL) | 107 (≈ 40 µg/mL) | 214 (≈ 79.9 µg/mL) | 107 (≈ 40 µg/mL) | 214 (≈ 79.9 µg/mL) | 160 (≈ 59.7 µg/mL) | 214 (≈ 79.9 µg/mL) | 214 (≈ 79.9 µg/mL) | 214 (≈ 79.9 µg/mL) | 54 (≈ 20.2 µg/mL) | 54 (≈ 20.2 µg/mL) | O=C(NN1C(=O)CSC1c1cccc(F)c1)c1nsc2ccccc12 (stereo unspecified) | 40.2 | 40.2 | 21.4 | 40.2 | 21.4 | 21.4 | 80.4 | 40.2 | 10.7 | MFC99.5 (Aspergillus versicolor [21]): 10.7 ×10⁻² umol/ml; MIC (Aspergillus ochraceus [22]): 292 µM (≈ 109 µg/mL); MFC99.5 (Aspergillus ochraceus [23]): 40.2 ×10⁻² umol/ml; MIC (Aspergillus niger [24]): 107 µM (≈ 40 µg/mL); MFC99.5 (Aspergillus niger [25]): 21.4 ×10⁻² umol/ml; MIC (Trichoderma viride [26]): 54 µM (≈ 20.2 µg/mL); MFC99.5 (Trichoderma viride [27]): 10.7 ×10⁻² umol/ml; MIC (Talaromyces funiculosus [28]): 107 µM (≈ 40 µg/mL); MFC99.5 (Talaromyces funiculosus [29]): 21.4 ×10⁻² umol/ml; MFC99.5 (Penicillium ochrochloron [30]): 21.4 ×10⁻² umol/ml; MIC (Candida albicans [31]): 107 µM (≈ 40 µg/mL); MFC99.5 (Candida albicans [32]): 21.4 ×10⁻² umol/ml
